The record followed here is publication PMC10999543, “Identification of kinase modulators as host-directed therapeutics against intracellular methicillin-resistant Staphylococcus aureus” (Frontiers in Cellular and Infection Microbiology, 2024).

One data set deals with intracellular MRSA. Type of data set: cell-based, Staphylococcus aureus. The conditions noted are these: for effect / hit / z-scoreMRSA+ mean / z-scoreMRSA+ rep 1 / z-scoreMRSA+ rep 2 / z-scoreMRSA+ rep 3: PKIS compound screen; for hit: Yes/No call (effect without cell death); for z-scoreMRSA+ mean: mean of 3 replicates; for z-scoreMRSA+ rep 1 / %GFP+ rep 1: replicate 1; for z-scoreMRSA+ rep 2 / %GFP+ rep 2: replicate 2; for z-scoreMRSA+ rep 3 / %GFP+ rep 3: replicate 3. In a few lines:
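HeLa, MRSA-GFP at MOI ~6.8, 1 h infection; gentamicin 30 µg/ml for 15 min; inhibitor plus gentamicin 5 µg/ml overnight, 37°C/5% CO2; triplicate plates; FACS %GFP+ and cell count; hit = z ≤ -2 MRSA+, z ≥ -3 count.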

The subject of a further data set is HeLa cells. In words: Compound screen by flow cytometry: HeLa cell count as surrogate readout of cell viability (z-scoreHeLa). The following applies: for cell death / z-scoreHeLa mean / z-scoreHeLa rep 1 / z-scoreHeLa rep 2 / z-scoreHeLa rep 3: PKIS compound screen; for z-scoreHeLa mean: mean of 3 replicates; for z-scoreHeLa rep 1 / cell count rep 1: replicate 1; for z-scoreHeLa rep 2 / cell count rep 2: replicate 2; for z-scoreHeLa rep 3 / cell count rep 3: replicate 3. It is filed as cell-based, human. A digest of the protocol:
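HeLa cells were infected with GFP-MRSA (mean MOI 6.8 ± 4.6) for 1 h, and extracellular bacteria were killed with 30 µg/ml gentamicin. Cells were then incubated overnight with kinase inhibitors in 5 µg/ml gentamicin, in triplicate against DMSO controls. Flow-cytometric cell count served as a viability surrogate, expressed as a plate z-score.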
Background: In flow cytometry, cells or beads pass a laser one at a time.

[1] abbreviates: PKIS compounds raw data, MRSA-infected HeLa cells.
Where [2] appears, read: PKIS compounds raw data, HeLa cell count.
Where [3] appears, read: PKIS compound screen raw data, MRSA-infected HeLa cells.
[4] abbreviates: PKIS compound screen raw data, HeLa cell count.

Read-outs that look alike come from different tables or passages of the source.

For `COc1ccc(CNC(=O)NC2CCN(c3ccnc(Nc4ccc(OC)cc4)n3)C2)cc1` (stereo not shown) [GSK1379727A], the effect entry with intracellular MRSA (Yes/No call) was “No”. In addition, in the data set on intracellular MRSA, the hit entry is listed as “No”, the “z-scoreMRSA+ mean” value is listed as 1.14, the “z-scoreMRSA+ rep 1” value amounted to 0.96 and the “z-scoreMRSA+ rep 2” value came to 1.05. Further, the “z-scoreMRSA+ rep 3” value with intracellular MRSA was 1.40. Moreover, in the data set with intracellular MRSA (setting [1]), the “%GFP+ rep 1” value amounted to 32.0%, the “%GFP+ rep 2” value is given as 31.5% and the “%GFP+ rep 3” value turned out to be 34.8%. Also, the cell death result in the data set on HeLa cells (Yes/No call) is reported as “No”. In the data set on HeLa cells, the z-scoreHeLa mean was found to be 0.68, the “z-scoreHeLa rep 1” value is reported as 0.99, the “z-scoreHeLa rep 2” value came to 0.43 and the “z-scoreHeLa rep 3” value is recorded as 0.62. Also, in the data set on HeLa cells (setting [2]), the “cell count rep 1” value is given as 7697, the “cell count rep 2” value came to 6658 and the “cell count rep 3” value is on record as 6574.
For `COc1ccc(Nc2nccc(N3CCC(NC(=O)Nc4cccc(C(C)=O)c4)C3)n2)cc1` (stereo not shown) [GSK1379731A], in the data set on intracellular MRSA (setting [3]), the “%GFP+ rep 1” value was 20.9%, the “%GFP+ rep 2” value was determined as 21.1% and the “%GFP+ rep 3” value worked out at 24.3%. Also, in the data set with intracellular MRSA (MRSA-infected HeLa cells), the “z-scoreMRSA+ mean” value came out at 0.62, the “z-scoreMRSA+ rep 1” value is recorded as 0.57, the “z-scoreMRSA+ rep 2” value amounted to 0.46 and the “z-scoreMRSA+ rep 3” value was 0.84. Moreover, the effect entry with intracellular MRSA (Yes/No call) was “No”. For the same compound, in the data set with intracellular MRSA, the hit entry is given as “No”, the “z-scoreMRSA+ mean” value is given as 0.32, the “z-scoreMRSA+ rep 1” value is on record as 0.53 and the “z-scoreMRSA+ rep 2” value amounted to 0.41. Also, in the data set with intracellular MRSA, the “z-scoreMRSA+ rep 3” value is on record as 0.00589. Also, the effect entry in the data set with intracellular MRSA (Yes/No call on z-scoreMRSA+) is on record as “No”. In addition, in the data set on intracellular MRSA (setting [1]), the “%GFP+ rep 1” value was 29.8%, the “%GFP+ rep 2” value is on record as 28.2% and the “%GFP+ rep 3” value was 27.3%. Moreover, in the data set on HeLa cells (setting [4]), the “cell count rep 1” value is reported as 33897, the “cell count rep 2” value was found to be 29436 and the “cell count rep 3” value worked out at 19502. Also, in the data set with HeLa cells (HeLa cell count), the z-scoreHeLa mean worked out at 0.48, the “z-scoreHeLa rep 1” value is reported as 0.63, the “z-scoreHeLa rep 2” value is given as 0.71 and the “z-scoreHeLa rep 3” value is given as 0.11. In addition, the cell death entry with HeLa cells (Yes/No call) is reported as “No”. Also, in the data set with HeLa cells (Yes/No call on z-scoreHeLa), the cell death entry is “No”. In the data set on HeLa cells, the z-scoreHeLa mean turned out to be 1.12, the “z-scoreHeLa rep 1” value was 1.44, the “z-scoreHeLa rep 2” value is 1.25 and the “z-scoreHeLa rep 3” value is recorded as 0.66. For the same compound, in the data set with HeLa cells (setting [2]), the “cell count rep 1” value is given as 8450, the “cell count rep 2” value worked out at 7898 and the “cell count rep 3” value is reported as 6635.
Consider `COc1ccc(Nc2nccc(N3CCC(NC(=O)c4cc5ccccc5s4)C3)n2)cc1` (stereo not shown) [GSK1379738A], for which, in the data set on intracellular MRSA (setting [3]), the “%GFP+ rep 1” value is recorded as 23.4%, the “%GFP+ rep 2” value came out at 24.0% and the “%GFP+ rep 3” value came to 25.7%. Besides, in the data set with intracellular MRSA (MRSA-infected HeLa cells), the “z-scoreMRSA+ mean” value is reported as 1.73, the “z-scoreMRSA+ rep 1” value came out at 1.76, the “z-scoreMRSA+ rep 2” value is on record as 1.65 and the “z-scoreMRSA+ rep 3” value amounted to 1.80. Further, the hit result in the data set on intracellular MRSA is given as “No”. Moreover, in the data set with intracellular MRSA (Yes/No call on z-scoreMRSA+), the effect entry is on record as “No”. For the same compound, in the data set with HeLa cells (setting [4]), the “cell count rep 1” value amounted to 35022, the “cell count rep 2” value is given as 33049 and the “cell count rep 3” value is 42431. Moreover, in the data set on HeLa cells (HeLa cell count), the z-scoreHeLa mean worked out at 0.75, the “z-scoreHeLa rep 1” value worked out at 2.26, the “z-scoreHeLa rep 2” value is -0.32 and the “z-scoreHeLa rep 3” value is given as 0.30. Also, in the data set with HeLa cells (Yes/No call on z-scoreHeLa), the cell death entry was “No”.
